target: Human Myelin PLP (human) (UniProt P60201); test: phage display, NGS count; settings: not given
Sequence (P60201 2-277 limits assumed): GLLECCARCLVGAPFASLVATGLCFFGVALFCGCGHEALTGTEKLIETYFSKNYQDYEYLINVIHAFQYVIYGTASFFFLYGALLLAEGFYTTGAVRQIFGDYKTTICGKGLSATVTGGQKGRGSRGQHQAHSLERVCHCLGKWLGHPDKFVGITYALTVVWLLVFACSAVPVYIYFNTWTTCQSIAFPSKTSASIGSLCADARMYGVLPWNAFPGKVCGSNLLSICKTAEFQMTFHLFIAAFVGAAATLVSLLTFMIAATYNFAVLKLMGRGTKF

| Count | Substance |
| --- | --- |
| 31 | NVFSATP (peptide) |
| 27 | KGVIPAT (peptide) |
| 26 | LPSHASI (peptide) |
| 27 | VPGHISG (peptide) |
| 27 | ALFQERK (peptide) |
| 27 | TMPIKAM (peptide) |
| 32 | IHHLESS (peptide) |
| 28 | YTWTPSR (peptide) |
| 31 | QRRSVIL (peptide) |
| 27 | IRPTHNG (peptide) |
| 27 | LHQTYRP (peptide) |
| 26 | KPSASIY (peptide) |
| 33 | NIPSSIL (peptide) |
| 26 | WHYTPSM (peptide) |
| 29 | IDRVRGL (peptide) |
| 28 | SVLPDKL (peptide) |
| 26 | WSRISVD (peptide) |
| 28 | SLPGYRH (peptide) |
| 31 | SGVATYT (peptide) |
| 33 | QPNMLKP (peptide) |
| 32 | LNGISAL (peptide) |
| 31 | LPLRLHA (peptide) |
| 30 | EKSTTVA (peptide) |
| 42 | AHQSSVT (peptide) |

test system: Human MPZ; test: Phage display library screening (Example 2, Python script analysis), binding to Human MPZ; settings: combined unique sequence count, Python/R script analysis
Sequence (P25189 30-153 limits assumed): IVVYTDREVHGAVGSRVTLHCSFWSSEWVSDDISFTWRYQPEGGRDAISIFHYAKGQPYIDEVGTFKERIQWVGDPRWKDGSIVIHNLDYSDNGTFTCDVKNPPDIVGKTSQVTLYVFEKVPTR
Description: Phage display library screens were used to identify peptides that bind to target proteins (including specific laminin trimers) that are expressed in human nerves, as described in Table 3. These screens were also carried out to identify peptides that could bind selectively to nerves versus muscle. Such peptides could therefore be useful for systemic in-vivo labeling of nerves during fluorescence assisted surgery. Specifically, m 13 phage libraries expressing 7 or 12 random amino acid peptides, or a cyclic peptide CX7C, on the N-terminus of the minor coat protein pIII (New England Biolabs; NEB) were processed through multiple rounds of selection for binding to target proteins expressed in nerves, or to excised human nerves, nerve extracts, or muscle, as described further below.
For screening against the specified target proteins in Table 1, including LN211, LN411, LN421, and LN521, the phage library was processed by up to 4 binding and wash cycles. For selection, phage libraries were incubated for up to 24 hours at 4° C. in 96 well plates that had been coated with one of the target proteins. Plates were then washed with PBS and phage were eluted using 0.2M glycine pH 2.0. Phage supernatants where then neutralized with Tris pH 9.0 prior to plating on TGI bacteria and LB agar plates. Colonies were counted to determine titer followed by DNA preparation of pools of phage and NextGen sequencing. After rounds of selection, phage were pooled and amplified for iterative selection. Phage that were bound at each round were sequenced. NextGen sequencing of pools after 2, 3 and 4 rounds of selection was used to isolate candidate sequences that were analyzed further to identify those that specifically bound each unique target protein.
Python Script Analysis: For all NEB sequence datasets, a python script was used to translate, trim, and filter the peptide sequences. The script translated the nucleotide sequences, translating amber codons as glutamine in peptide sequences, and then trimmed the end sequences that come from the vector. Secondly, the script combined the unique counts of trimmed peptides with identical sequences. […] Another python script was used to group peptides from different assays according to protein target (Myelin Protein Zero, Myelin Proteolipid Protein, Myelin Basic Protein, and Nidogen-2) and also combine the unique sequence counts for each peptide. An R script was written to merge the peptide sequences from different data files and determine peptides specific for each protein target but absent from different protein binding datasets. Peptide sequences were ranked by unique sequence count.

| Substance | Count |
| --- | --- |
| LWAKRDA (Human MPZ-binding peptide) | 38 |
| CGEKIMSLC (Human MPZ-binding peptide) | 40 |
| FSPRDVS (Human MPZ-binding peptide) | 39 |
| HPLMVPS (Human MPZ-binding peptide) | 41 |
| SNALSYF (Human MPZ-binding peptide) | 41 |
| GEWRARIDQDVS (Human MPZ-binding peptide) | 65 |
| KRNLWDI (Human MPZ-binding peptide) | 40 |
| SETESYM (Human MPZ-binding peptide) | 41 |
| IEQVGWR (Human MPZ-binding peptide) | 38 |
| WPRPIQI (Human MPZ-binding peptide) | 41 |
| FPSYTIS (Human MPZ-binding peptide) | 40 |
| NASVPPK (Human MPZ-binding peptide) | 42 |
| CPDAARNSC (Human MPZ-binding peptide) | 43 |
| KQPAMEN | 37 |
| YSSLTSN (Human MPZ-binding peptide) | 38 |
| NTASMTT (Human MPZ-binding peptide) | 38 |
| NMSHSNR (Human MPZ-binding peptide) | 46 |
| TTLVVTA (Human MPZ-binding peptide) | 42 |
| FMSDVDH (Human MPZ-binding peptide) | 37 |
| ADNVLRRALENI (Human MPZ-binding peptide) | 49 |
| STHEWRT (Human MPZ-binding peptide) | 45 |
| ALPISYL (Human MPZ-binding peptide) | 42 |
| SVAYVPV (Human MPZ-binding peptide) | 46 |
| YPQARTS (Human MPZ-binding peptide) | 46 |
| FRVTQTA (Human MPZ-binding peptide) | 41 |
| SPNTNSH (Human MPZ-binding peptide) | 40 |

| Substance | Count |
| --- | --- |
| CRVGVTSAC (Human MPZ-binding peptide) | 41 |
| HNQLLYT (Human MPZ-binding peptide) | 38 |
| YAPWRVF (Human MPZ-binding peptide) | 37 |
| VVPLKWI (Human MPZ-binding peptide) | 40 |
| CLKQQTGDC (Human MPZ-binding peptide) | 37 |
| WMTNLDP (Human MPZ-binding peptide) | 43 |
| CSNALNKAC (Human MPZ-binding peptide) | 39 |
| LVNPFPE (Human MPZ-binding peptide) | 39 |
| TLLHYSA (Human MPZ-binding peptide) | 40 |
| NGAYSLAIRYTS (Human MPZ-binding peptide) | 53 |
| THSTDLS (Human MPZ-binding peptide) | 37 |
| MYHDSVS (Human MPZ-binding peptide) | 47 |
| SYLPPFI (Human MPZ-binding peptide) | 41 |
| CDIKDANSC (Human MPZ-binding peptide) | 38 |
| MIHTRQT (Human MPZ-binding peptide) | 41 |
| YTPNWHFRWMPA (Human MPZ-binding peptide) | 60 |
| LSPPRIM (Human MPZ-binding peptide) | 43 |
| LISPTAR (Human MPZ-binding peptide) | 37 |
| GGSKVWG (Human MPZ-binding peptide) | 40 |
| AWTMRAS (Human MPZ-binding peptide) | 39 |
| TTWPNTA (Human MPZ-binding peptide) | 45 |
| FALPAGL (Human MPZ-binding peptide) | 41 |
| LVLSNPR (Human MPZ-binding peptide) | 46 |
| KLPTLSV (Human MPZ-binding peptide) | 44 |
| LVLQTTP (Human MPZ-binding peptide) | 37 |
| GSWSSGF (Human MPZ-binding peptide) | 52 |

| Substance | Count |
| --- | --- |
| VHTPYRS (Human MPZ-binding peptide) | 41 |
| LPAESHW (Human MPZ-binding peptide) | 45 |
| HHPLFID (Human MPZ-binding peptide) | 39 |
| TTNVTEIERESY (Human MPZ-binding peptide) | 37 |
| YMKHSPG (Human MPZ-binding peptide) | 45 |
| CERIGPREC (Human MPZ-binding peptide) | 39 |
| CIKGEDNQC (Human MPZ-binding peptide) | 38 |
| FEHMAVT (Human MPZ-binding peptide) | 42 |
| HLDSRRH (Human MPZ-binding peptide) | 46 |
| HPFPRFD (Human MPZ-binding peptide) | 45 |
| GMVSPHHSVYRH (Human MPZ-binding peptide) | 51 |
| CYSSVADMC (Human MPZ-binding peptide) | 43 |
| YEGERGA (Human MPZ-binding peptide) | 39 |
| SGHGAFR (Human MPZ-binding peptide) | 42 |
| ISSVTVV (Human MPZ-binding peptide) | 37 |
| AYLEDWRSMSTR (Human MPZ-binding peptide) | 46 |
| GLWRHTM (Human MPZ-binding peptide) | 40 |
| VPLAYLR (Human MPZ-binding peptide) | 40 |
| KTPILAS (Human MPZ-binding peptide) | 38 |
| CEDRQRSMC (Human MPZ-binding peptide) | 40 |
| NPTSEGA (Human MPZ-binding peptide) | 37 |
| QIAHLEY (Human MPZ-binding peptide) | 50 |
| YGQSITE (Human MPZ-binding peptide) | 37 |
| NPISPRN (Human MPZ-binding peptide) | 38 |
| DRYLLNQ (Human MPZ-binding peptide) | 40 |
